Consider six molecules from PubChem BioAssay (NCI).

Among the test systems are 786-0 renal; HL-60(TB) leukemia; HOP-62 NSCLC; KM12 colon; MCF7 breast; NCI-H226 lung; NCI-H23 lung; SN12C renal; T-47D breast; TK-10 renal.
What all share (experiment): inhibition of tumour cell growth, NCI panel, 48 h

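Interpolation was linear, between the two tested concentrations surrounding the appropriate level; five concentrations were tested over 48 hours in 96-well plates. GI50 marks 50% less growth. The concentration for full growth arrest is given as TGI.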

`N#C/C(=C/NC(=S)c1ccncc1)C(N)=O`: the TGI in the assay with 786-0 renal, in the assay with HL-60(TB) leukemia, in the assay on HOP-62 NSCLC, in the assay with KM12 colon, in the assay on MCF7 breast and with NCI-H226 lung was more than 100 µM each time. Besides, the TGI with NCI-H23 lung, in the assay on SN12C renal, in the assay with T-47D breast and with TK-10 renal was more than 100 µM throughout.

Consider `COc1cc2cc(Oc3ccc(NC(=O)Nc4ccc(Cl)c(Cl)c4)cc3)c(C)nc2cc1OC`, for which the GI50 in the assay with 786-0 renal is 3.64 µM; with HL-60(TB) leukemia, 2.76 µM; with HOP-62 NSCLC, 3.55 µM; in the assay on KM12 colon it was 3.22 µM; in the assay on MCF7 breast, 2.89 µM; with NCI-H226 lung, 3.12 µM. Moreover, the GI50 in the assay on NCI-H23 lung is 3.36 µM; in the assay with SN12C renal it was 3.39 µM; in the assay on T-47D breast, 2.7 µM; in the assay on TK-10 renal it was 3.46 µM. Also, the TGI in the assay with 786-0 renal is 17.7 µM; with HL-60(TB) leukemia it was 6.75 µM; with HOP-62 NSCLC, 11.9 µM; in the assay on KM12 colon, 13.4 µM; with MCF7 breast, 13.8 µM; in the assay with NCI-H226 lung it was 8.68 µM. For the same molecule, the TGI in the assay with NCI-H23 lung turned out to be 15.9 µM; with SN12C renal, 20.5 µM; in the assay with T-47D breast, 10.1 µM; in the assay with TK-10 renal, 9.18 µM.

Regarding `O=C1Cc2cc(C(=O)NC3C[C@H]4CC[C@@H](C3)N4S(=O)(=O)CC3CCN(CCCC(F)(F)F)CC3)c(Cl)cc2N1` (stereo not given in full), the GI50 in the assay with 786-0 renal, in the assay with HL-60(TB) leukemia, with HOP-62 NSCLC, in the assay with KM12 colon, in the assay on MCF7 breast and in the assay with NCI-H226 lung was more than 100 µM in each case. Further, the GI50 with NCI-H23 lung, in the assay with SN12C renal, in the assay with T-47D breast and in the assay with TK-10 renal was more than 100 µM in each case. Also, the TGI with 786-0 renal, in the assay with HL-60(TB) leukemia, with HOP-62 NSCLC, in the assay on KM12 colon, in the assay with MCF7 breast and in the assay on NCI-H226 lung was more than 100 µM throughout. Also, the TGI in the assay on NCI-H23 lung, in the assay with SN12C renal, with T-47D breast and with TK-10 renal was more than 100 µM in each case.

Regarding `O=S(=O)(c1cnccc1N1CCN(CCO)CC1)N1CCCC1`, the TGI with 786-0 renal, in the assay on HL-60(TB) leukemia, in the assay on HOP-62 NSCLC, in the assay on KM12 colon, in the assay with MCF7 breast and with NCI-H226 lung was more than 100 µM each time. Also, the TGI in the assay on NCI-H23 lung, with SN12C renal, with T-47D breast and in the assay on TK-10 renal was more than 100 µM each time.

Turning to `Cc1ccc(NC(=O)C(=O)CC(=O)c2sc(Nc3c(C)cccc3C)nc2C)cc1C`, the TGI with 786-0 renal, with HL-60(TB) leukemia, in the assay on HOP-62 NSCLC, in the assay on KM12 colon, in the assay with MCF7 breast and in the assay with NCI-H226 lung was more than 100 µM each time. Moreover, the TGI with NCI-H23 lung, in the assay with SN12C renal, in the assay on T-47D breast and in the assay on TK-10 renal was more than 100 µM in each case.

Turning to `O=C1NC(=NCCCc2ccccc2)S/C1=C\c1ccc2ncccc2c1`, the GI50 with 786-0 renal was 5.47 µM; in the assay on HL-60(TB) leukemia, 5.49 µM; in the assay with HOP-62 NSCLC, 5.79 µM; with KM12 colon it was 8.84 µM; in the assay with MCF7 breast, 4.11 µM; with NCI-H226 lung it was 4.2 µM. Besides, the GI50 in the assay with NCI-H23 lung is 6.06 µM; with SN12C renal, 6.13 µM; in the assay on T-47D breast, 4.73 µM; with TK-10 renal it was 4.15 µM. Also, the TGI was 13 µM in the assay on 786-0 renal; 16 µM in the assay with HL-60(TB) leukemia; 13.8 µM in the assay on HOP-62 NSCLC; more than 25 µM with KM12 colon; 11.2 µM with MCF7 breast; 10.7 µM in the assay on NCI-H226 lung. Further, the TGI is 15.8 µM in the assay with NCI-H23 lung, 20.9 µM in the assay on SN12C renal, 12.3 µM with T-47D breast and 10.5 µM in the assay with TK-10 renal.
